Test results as given in the NIST ThermoML archive (doi:10.1016/j.tca.2013.03.017).
Numbers after ± are expanded uncertainties.

Tests used:
[1] = molar heat capacity at constant pressure; xn = mol fraction of the nth substance listed; settings: 101 kPa, Liquid, Small sample (50 mg) DSC
[2] = xn = mol fraction of the nth substance listed; settings: 101 kPa, Liquid, Hot wire method

O=S1(=O)CCCC1 [sulfolane] + O
Settings	molar heat capacity at constant pressure, [1] [J/K/mol]	thermal conductivity, [2] [W/m/K]
303.15 K, x1 = 0.1	87.62 ± 1.4	0.3861 ± 0.0018
303.15 K, x1 = 0.198	99.49 ± 1.5	0.296 ± 0.0014
303.15 K, x1 = 0.299	112 ± 1.7	0.2563 ± 0.0012
303.15 K, x1 = 0.397	123.4 ± 1.9	0.2358 ± 0.0011
303.15 K, x1 = 0.493	133.8 ± 2.1	0.2206 ± 0.001
303.15 K, x1 = 0.6	144.9 ± 2.2	0.2028 ± 0.001
303.15 K, x1 = 0.699	154.4 ± 2.4	0.1911 ± 0.0009
303.15 K, x1 = 0.8	163.7 ± 2.5	0.1809 ± 0.0009
303.15 K, x1 = 0.899	172.4 ± 2.7	0.1739 ± 0.0009
303.15 K, x1 = 1	181.5 ± 2.8	0.1678 ± 0.0008
313.15 K, x1 = 0.1	88.47 ± 1.4	0.3969 ± 0.0027
313.15 K, x1 = 0.198	100.9 ± 1.6	0.2979 ± 0.002
313.15 K, x1 = 0.299	113.9 ± 1.8	0.2583 ± 0.0018
313.15 K, x1 = 0.397	125.6 ± 1.9	0.2334 ± 0.0017
313.15 K, x1 = 0.493	136.4 ± 2.1	0.22 ± 0.0015
313.15 K, x1 = 0.6	148 ± 2.3	0.2012 ± 0.0015
313.15 K, x1 = 0.699	157.9 ± 2.4	0.1896 ± 0.0013
313.15 K, x1 = 0.8	167.2 ± 2.6	0.1797 ± 0.0013
313.15 K, x1 = 0.899	176 ± 2.7	0.1719 ± 0.0013
313.15 K, x1 = 1	185.1 ± 2.9	0.1656 ± 0.0012
323.15 K, x1 = 0.1	89.1 ± 1.4	0.4026 ± 0.0026
323.15 K, x1 = 0.198	102.2 ± 1.6	0.2965 ± 0.0019
323.15 K, x1 = 0.299	115.3 ± 1.8	0.2558 ± 0.0016
323.15 K, x1 = 0.397	127.5 ± 2	0.2316 ± 0.0016
323.15 K, x1 = 0.493	138.8 ± 2.2	0.2167 ± 0.0014
323.15 K, x1 = 0.6	150.6 ± 2.3	0.1993 ± 0.0013
323.15 K, x1 = 0.699	160.9 ± 2.5	0.1883 ± 0.0013
323.15 K, x1 = 0.8	170.9 ± 2.6	0.1788 ± 0.0011
323.15 K, x1 = 0.899	179.7 ± 2.8	0.1715 ± 0.0011
323.15 K, x1 = 1	188.7 ± 2.9	0.1634 ± 0.0011
333.15 K, x1 = 0.1	89.75 ± 1.4	0.4084 ± 0.0026
333.15 K, x1 = 0.198	103.6 ± 1.6	0.295 ± 0.0019
333.15 K, x1 = 0.299	117.3 ± 1.8	0.2507 ± 0.0016
333.15 K, x1 = 0.397	129.9 ± 2	0.2304 ± 0.0014
333.15 K, x1 = 0.493	141.5 ± 2.2	0.2133 ± 0.0014
333.15 K, x1 = 0.6	153.8 ± 2.4	0.1986 ± 0.0013
333.15 K, x1 = 0.699	164.5 ± 2.5	0.1876 ± 0.0011
333.15 K, x1 = 0.8	174.3 ± 2.7	0.1779 ± 0.0011
333.15 K, x1 = 0.899	183.3 ± 2.8	0.1699 ± 0.0011
333.15 K, x1 = 1	192.3 ± 3	0.1616 ± 0.0011
343.15 K, x1 = 0.1	90.42 ± 1.4	0.4085 ± 0.0025
343.15 K, x1 = 0.198	104.5 ± 1.6	0.2893 ± 0.0017
343.15 K, x1 = 0.299	118.5 ± 1.8	0.2417 ± 0.0014
343.15 K, x1 = 0.397	131.7 ± 2	0.2229 ± 0.0014
343.15 K, x1 = 0.493	143.5 ± 2.2	0.2092 ± 0.0013
343.15 K, x1 = 0.6	155.8 ± 2.4	0.1966 ± 0.0012
343.15 K, x1 = 0.699	166.4 ± 2.6	0.1852 ± 0.0011
343.15 K, x1 = 0.8	176.4 ± 2.7	0.1765 ± 0.0011
343.15 K, x1 = 0.899	185.6 ± 2.9	0.1676 ± 0.0011
343.15 K, x1 = 1	194.3 ± 3	0.1593 ± 0.0011
353.15 K, x1 = 0.1	91.42 ± 1.4	0.4058 ± 0.0023
353.15 K, x1 = 0.198	106.2 ± 1.6	0.287 ± 0.0017
353.15 K, x1 = 0.299	120.8 ± 1.9	0.2399 ± 0.0014
353.15 K, x1 = 0.397	134 ± 2.1	0.2185 ± 0.0012
353.15 K, x1 = 0.493	146.1 ± 2.3	0.204 ± 0.0012
353.15 K, x1 = 0.6	158.8 ± 2.5	0.1921 ± 0.0012
353.15 K, x1 = 0.699	169.6 ± 2.6	0.1817 ± 0.0011
353.15 K, x1 = 0.8	179.9 ± 2.8	0.173 ± 0.001
353.15 K, x1 = 0.899	189.2 ± 2.9	0.1657 ± 0.001
353.15 K, x1 = 1	197.8 ± 3.1	0.1581 ± 0.0009
